Molecular target: CYP102A1 (Priestia megaterium, UniProt P14779, E144G/E268V/F82I/F88V/L189Q/N214S/R48L)
Test: UV-visible spectral binding titration (type II shift); also turnover by HPLC with NADPH-generating system (Km […])

CYP102A1, sequence (P14779 whole entry R48L/F82I/F88V/E144G/L189Q/N214S/E268V): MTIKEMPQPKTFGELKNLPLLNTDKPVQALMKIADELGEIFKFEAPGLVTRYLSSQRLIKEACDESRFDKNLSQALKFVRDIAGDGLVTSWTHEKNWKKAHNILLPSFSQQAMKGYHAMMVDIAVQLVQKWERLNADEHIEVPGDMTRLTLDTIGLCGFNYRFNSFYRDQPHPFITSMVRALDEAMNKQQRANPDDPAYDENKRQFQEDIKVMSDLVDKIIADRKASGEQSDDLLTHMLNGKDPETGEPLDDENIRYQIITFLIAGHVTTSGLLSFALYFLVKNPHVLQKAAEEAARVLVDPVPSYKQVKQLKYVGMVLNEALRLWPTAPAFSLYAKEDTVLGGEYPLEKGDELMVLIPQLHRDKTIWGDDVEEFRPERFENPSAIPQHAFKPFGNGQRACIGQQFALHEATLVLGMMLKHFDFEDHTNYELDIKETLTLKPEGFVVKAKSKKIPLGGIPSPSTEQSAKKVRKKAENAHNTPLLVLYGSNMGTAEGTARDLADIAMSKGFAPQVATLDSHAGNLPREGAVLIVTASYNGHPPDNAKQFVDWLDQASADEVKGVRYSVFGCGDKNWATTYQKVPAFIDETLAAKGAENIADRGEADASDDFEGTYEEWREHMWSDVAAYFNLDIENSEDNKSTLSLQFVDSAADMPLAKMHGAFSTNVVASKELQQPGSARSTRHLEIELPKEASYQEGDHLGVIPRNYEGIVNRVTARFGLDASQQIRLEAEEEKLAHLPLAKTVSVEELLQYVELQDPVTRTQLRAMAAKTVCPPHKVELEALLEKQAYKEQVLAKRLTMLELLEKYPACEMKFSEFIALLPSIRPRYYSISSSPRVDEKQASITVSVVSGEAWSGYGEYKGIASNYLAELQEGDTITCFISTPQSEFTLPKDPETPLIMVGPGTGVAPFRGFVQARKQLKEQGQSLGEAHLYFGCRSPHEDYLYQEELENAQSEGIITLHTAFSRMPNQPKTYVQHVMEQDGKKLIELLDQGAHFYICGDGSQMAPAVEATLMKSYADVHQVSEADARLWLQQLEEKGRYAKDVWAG

Q: How did the Kd turn out when `CC1=CCC(O)(C(C)C)CC1` (racemic) [terpinen-4-ol] was run?
A: 920 ± 260 nM
